Measured values from PubChem BioAssay AID248 (DTP/NCI, 2004).
Values joined by “and” are separate entries in the source; they are usually repeats but may differ in a detail not shown here. Equal values may be shown once. Toxic doses and inconclusive results are not listed. No stated cut-off is given here; in the data, active means T/C of 150% or more; inactive means T/C below 125%.

Tested on: L1210 leukemia ip in BDF1 mice, survival T/C
Assay: NCI In Vivo Anticancer Drug Screen. Data for tumor model L1210 Leukemia (intraperitoneal) in B6D2F1 (BDF1) mice
Conditions: endpoint: mean survival time, higher = longer survival
Summary of the method: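 Tumor cells were implanted, animals were treated, and survival was followed. The result divides the treated measurement by the vehicle-control measurement.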

[1] = dose: 100.0 mg/kg/injection, schedule: Q01DX001 (ip), vehicle: Klucel (hydroxypropylcellulose) (HPC)
[2] = dose: 200.0 mg/kg/injection, schedule: Q01DX001 (ip), vehicle: Klucel (hydroxypropylcellulose) (HPC)
[3] = dose: 400.0 mg/kg/injection, schedule: Q01DX001 (ip), vehicle: Klucel (hydroxypropylcellulose) (HPC)
[4] = dose: 100.0 mg/kg/injection, schedule: Q01DX001 (ip), vehicle: saline
[5] = dose: 100.0 mg/kg/injection, schedule: Q01DX009 (ip), vehicle: saline
[6] = dose: 200.0 mg/kg/injection, schedule: Q01DX001 (ip), vehicle: saline
[7] = dose: 200.0 mg/kg/injection, schedule: Q01DX009 (ip), vehicle: saline
[8] = dose: 400.0 mg/kg/injection, schedule: Q01DX001 (ip), vehicle: saline
[9] = dose: 400.0 mg/kg/injection, schedule: Q01DX009 (ip), vehicle: saline
[10] = dose: 100.0 mg/kg/injection, schedule: Q04DX003 (ip), vehicle: Klucel (hydroxypropylcellulose) (HPC)
[11] = dose: 200.0 mg/kg/injection, schedule: Q04DX003 (ip), vehicle: Klucel (hydroxypropylcellulose) (HPC)
[12] = dose: 400.0 mg/kg/injection, schedule: Q04DX003 (ip), vehicle: Klucel (hydroxypropylcellulose) (HPC)
[13] = dose: 100.0 mg/kg/injection, schedule: Q01DX009 (ip), vehicle: Klucel (hydroxypropylcellulose) (HPC)
[14] = dose: 200.0 mg/kg/injection, schedule: Q01DX009 (ip), vehicle: Klucel (hydroxypropylcellulose) (HPC)
[15] = dose: 100.0 mg/kg/injection, schedule: Q01DX009 (ip), vehicle: saline with Tween-80
[16] = dose: 200.0 mg/kg/injection, schedule: Q01DX009 (ip), vehicle: saline with Tween-80
[17] = dose: 400.0 mg/kg/injection, schedule: Q01DX009 (ip), vehicle: saline with Tween-80

Measured: T/C

O=[N+]([O-])c1c(Br)sc(Br)c1[N+](=O)[O-]
inactive: dose: 2.5 mg/kg/injection, schedule: Q01DX009 (ip), vehicle: Klucel (hydroxypropylcellulose) (HPC) 88 % of control | dose: 2.5 mg/kg/injection, schedule: Q04DX003 (ip), vehicle: Klucel (hydroxypropylcellulose) (HPC) 109 % of control | dose: 5.0 mg/kg/injection, schedule: Q01DX009 (ip), vehicle: Klucel (hydroxypropylcellulose) (HPC) 88 % of control | dose: 5.0 mg/kg/injection, schedule: Q04DX003 (ip), vehicle: Klucel (hydroxypropylcellulose) (HPC) 101 % of control | dose: 10.0 mg/kg/injection, schedule: Q01DX009 (ip), vehicle: Klucel (hydroxypropylcellulose) (HPC) 108 % of control | dose: 10.0 mg/kg/injection, schedule: Q04DX003 (ip), vehicle: Klucel (hydroxypropylcellulose) (HPC) 96 % of control

C/C(=N/N(C)C)c1ccc(C#N)cc1
inactive: [1] 112 % of control | [2] 113 % of control | [3] 105 % of control

Cc1ccc(S(=O)(=O)C2=C(c3ccccc3)c3ccccc3CC2)cc1
inactive: [4] 101 % of control | [5] 93 % of control | dose: 100.0 mg/kg/injection, schedule: Q04DX003 (ip), vehicle: acetone 100 % of control | [6] 93 % of control | [7] 91 % of control | dose: 200.0 mg/kg/injection, schedule: Q04DX003 (ip), vehicle: acetone 102 % of control | [8] 95 % of control | [9] 93 % of control | dose: 400.0 mg/kg/injection, schedule: Q04DX003 (ip), vehicle: acetone 105 % of control

COC1OC(CN(CCOS(C)(=O)=O)S(C)(=O)=O)C2OC(C)(C)OC12 (stereo not given)
inactive: dose: 50.0 mg/kg/injection, schedule: Q01DX009 (ip), vehicle: saline 95 % of control | dose: 50.0 mg/kg/injection, schedule: Q04DX003 (ip), vehicle: Klucel (hydroxypropylcellulose) (HPC) 116 % of control | [5] 97 % of control | [10] 102 % of control | [7] 95 % of control | [11] 121 % of control | [9] 95 % of control | [12] 104 % of control

Cc1ccc(S(=O)(=O)OCC2CC=CCC2COS(=O)(=O)c2ccc(C)cc2)cc1 (stereo not given)
inactive: [4] 88 % of control | [6] 92 % of control | [8] 88 % of control

CCN(c1ccccc1P(c1ccccc1)c1ccccc1)c1ccccc1P(c1ccccc1)c1ccccc1
inactive: dose: 25.6 mg/kg/injection, schedule: Q04DX002 (ip), vehicle: saline with Tween-80 89 % of control | dose: 64.0 mg/kg/injection, schedule: Q04DX002 (ip), vehicle: saline with Tween-80 89 % of control | dose: 160.0 mg/kg/injection, schedule: Q04DX002 (ip), vehicle: saline with Tween-80 89 % of control | dose: 400.0 mg/kg/injection, schedule: Q04DX002 (ip), vehicle: saline with Tween-80 89 % of control

O=C(O)c1nc[nH]c1C(=O)O
inactive: [5] 102 % of control | [10] 93 % of control | [7] 104 % of control | [11] 96 % of control | [9] 94 % of control | [12] 88 % of control

NC(=O)c1cc[n+](-c2ccc([N+](=O)[O-])cc2[N+](=O)[O-])cc1
inactive: dose: 100.0 mg/kg/injection, schedule: Q04DX003 (ip), vehicle: saline 102 % of control | dose: 200.0 mg/kg/injection, schedule: Q04DX003 (ip), vehicle: saline 103 % of control

C1=CC([P+](Cc2ccccc2)(c2ccccc2)c2ccccc2)CC1 (stereo not given)
inactive: dose: 6.25 mg/kg/injection, schedule: Q04DX003 (ip), vehicle: saline 95 % of control | dose: 12.5 mg/kg/injection, schedule: Q04DX003 (ip), vehicle: saline 90 % of control | dose: 25.0 mg/kg/injection, schedule: Q04DX003 (ip), vehicle: saline 96 % of control | dose: 50.0 mg/kg/injection, schedule: Q04DX003 (ip), vehicle: saline 93 % of control and 96 % of control

CC(C(=O)Nc1ccc(Cl)c(Cl)c1)C(=O)Nc1ccc(Cl)c(Cl)c1
inactive: dose: 100.0 mg/kg/injection, schedule: Q04DX002 (ip), vehicle: gum acacia 92 % of control | dose: 200.0 mg/kg/injection, schedule: Q04DX002 (ip), vehicle: gum acacia 103 % of control | dose: 400.0 mg/kg/injection, schedule: Q04DX002 (ip), vehicle: gum acacia 99 % of control

COc1cccc(OC)c1C#N
inactive: dose: 50.0 mg/kg/injection, schedule: Q01DX009 (ip), vehicle: Klucel (hydroxypropylcellulose) (HPC) 95 % of control | [13] 96 % of control | [10] 98 % of control | [14] 95 % of control | [11] 98 % of control

O=C(O)CSC1(SCC(=O)O)CCCCC1
inactive: [1] 103 % of control | [2] 97 % of control | [3] 97 % of control

CC(=O)C(C(C)=O)C(c1ccccc1)C(C(C)=O)C(C)=O
inactive: [13] 94 % of control | [14] 91 % of control

CCN(CC)CCCNc1c2ccccc2nc2ccccc12
inactive: dose: 5.0 mg/kg/injection, schedule: Q01DX001 (ip), vehicle: saline 113 % of control | dose: 10.0 mg/kg/injection, schedule: Q01DX001 (ip), vehicle: saline 104 % of control | dose: 20.0 mg/kg/injection, schedule: Q01DX001 (ip), vehicle: saline 115 % of control | dose: 40.0 mg/kg/injection, schedule: Q01DX001 (ip), vehicle: saline 87 % of control

CC(=O)Oc1ccc(Cl)cc1
inactive: [15] 97 % of control | dose: 100.0 mg/kg/injection, schedule: Q04DX003 (ip), vehicle: saline with Tween-80 108 % of control | [16] 103 % of control | dose: 200.0 mg/kg/injection, schedule: Q04DX003 (ip), vehicle: saline with Tween-80 97 % of control | dose: 400.0 mg/kg/injection, schedule: Q04DX003 (ip), vehicle: saline with Tween-80 105 % of control

OC(CN1CC1)C(O)CN1CC1 (stereo not given)
active: dose: 0.5 mg/kg/injection, schedule: Q01DX Z (ip), vehicle: carboxymethylcellulose (CMC) 200 % of control
inactive: dose: 0.06 mg/kg/injection, schedule: Q01DX Z (ip), vehicle: carboxymethylcellulose (CMC) 114 % of control | dose: 0.4 mg/kg/injection, schedule: Q01DX Z (ip), vehicle: saline 100 % of control | dose: 0.6 mg/kg/injection, schedule: Q01DX Z (ip), vehicle: saline 100 % of control | dose: 0.9 mg/kg/injection, schedule: Q01DX Z (ip), vehicle: saline 95 % of control | dose: 1.0 mg/kg/injection, schedule: Q01DX Z (ip), vehicle: carboxymethylcellulose (CMC) 90 % of control | dose: 1.3 mg/kg/injection, schedule: Q01DX Z (ip), vehicle: saline 95 % of control

CCN(CC)Cc1c(O)ccc2c3c(c(=O)oc12)CCCC3
inactive: dose: 10.0 mg/kg/injection, schedule: Q01DX001 (ip), vehicle: carboxymethylcellulose (CMC) 103 % of control | dose: 20.0 mg/kg/injection, schedule: Q01DX001 (ip), vehicle: carboxymethylcellulose (CMC) 97 % of control | dose: 40.0 mg/kg/injection, schedule: Q01DX001 (ip), vehicle: carboxymethylcellulose (CMC) 94 % of control | dose: 80.0 mg/kg/injection, schedule: Q01DX001 (ip), vehicle: carboxymethylcellulose (CMC) 96 % of control

C#CCOCC(O)C[As](=O)(O)c1cccc(Cl)c1 (stereo not given)
inactive: dose: 1.56 mg/kg/injection, schedule: Q04DX003 (ip), vehicle: saline with Tween-80 92 % of control | dose: 3.13 mg/kg/injection, schedule: Q04DX003 (ip), vehicle: saline with Tween-80 104 % of control | dose: 6.25 mg/kg/injection, schedule: Q04DX003 (ip), vehicle: saline with Tween-80 104 % of control

C1=CCC(OC2CCCCO2)=CC1 (stereo not given)
inactive: [15] 96 % of control | [16] 94 % of control | [17] 87 % of control

CNS(=O)(=O)c1ccc(NC(=O)C(Cl)Cl)cc1
inactive: dose: 100.0 mg/kg/injection, schedule: Q01DX001 (ip), vehicle: other 101 % of control | [15] 95 % of control | dose: 200.0 mg/kg/injection, schedule: Q01DX001 (ip), vehicle: other 103 % of control | [16] 106 % of control | dose: 400.0 mg/kg/injection, schedule: Q01DX001 (ip), vehicle: other 101 % of control | [17] 102 % of control
